From ChEMBL document CHEMBL1201862, “PubChem BioAssay data set” (2004) come the findings set out here.

SMILES strings stand for the structures. Active and inactive are the calls of the source.

Experiment [1] has as its target T1, Corticotropin-releasing factor receptor 2/Corticotropin-releasing factor-binding protein (Homo sapiens, UniProt P24387+Q13324).
T1 sequence (Q13324 whole entry): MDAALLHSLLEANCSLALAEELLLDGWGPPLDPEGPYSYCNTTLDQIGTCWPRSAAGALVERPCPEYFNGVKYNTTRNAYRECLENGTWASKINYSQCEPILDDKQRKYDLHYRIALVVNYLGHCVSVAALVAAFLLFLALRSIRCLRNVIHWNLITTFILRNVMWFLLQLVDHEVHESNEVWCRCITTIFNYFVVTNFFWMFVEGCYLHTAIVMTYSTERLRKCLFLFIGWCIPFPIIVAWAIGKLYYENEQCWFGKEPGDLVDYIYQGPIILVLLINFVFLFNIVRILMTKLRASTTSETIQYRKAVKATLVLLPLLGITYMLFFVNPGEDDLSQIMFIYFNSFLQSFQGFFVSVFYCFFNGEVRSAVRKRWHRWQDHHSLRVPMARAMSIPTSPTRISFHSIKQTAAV
T1 sequence (P24387 whole entry): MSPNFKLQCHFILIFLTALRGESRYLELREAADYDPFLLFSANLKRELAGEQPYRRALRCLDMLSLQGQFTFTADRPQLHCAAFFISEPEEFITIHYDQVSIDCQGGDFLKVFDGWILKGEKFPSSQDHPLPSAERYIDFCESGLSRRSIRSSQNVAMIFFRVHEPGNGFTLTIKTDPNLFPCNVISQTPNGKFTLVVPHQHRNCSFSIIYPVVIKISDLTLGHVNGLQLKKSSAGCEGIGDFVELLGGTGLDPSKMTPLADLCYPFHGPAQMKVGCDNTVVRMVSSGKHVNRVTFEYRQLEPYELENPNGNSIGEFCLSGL
Description: activators of CRF receptor 2 with binding protein – uHTS hits, confirmation (AID 602473). The note with it: read-out: EC50_Mean. The format is functional.

The next experiment concerns the target Kallikrein-7 (Homo sapiens, UniProt P49862). As to the kind of experiment: Fluorescence Intensity-based biochemical primary high throughput dose response assay to identify activators of kallikrein-7 (K7) zymogen.
A further experiment addresses T2, Protein Tat (Human immunodeficiency virus type 1 group M subtype B (isolate HXB2)(HIV-1), UniProt P04608).
T2 sequence (P04608 whole entry): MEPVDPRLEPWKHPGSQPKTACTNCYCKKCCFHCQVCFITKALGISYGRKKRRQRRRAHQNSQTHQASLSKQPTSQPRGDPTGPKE
The format is functional.

Experiment [2] is described as follows: Luminescence Cell-Based Dose Response to Identify Activators of 5'UTR Stem-Loop Driven Prion Protein mRNA Translation in H4-C Neuroglioblastoma Cells. [Related pubchem assays: 1829 (Project Summary), 1814 (Primary HTS)]. The format is functional.
A short description of experiment [3]: Luminescence Cell-Based Dose Confirmation HTS to Identify Activators of 5'UTR Stem-Loop Driven Alpha-Synuclein mRNA Translation in H4 Neuroglioblastoma Cells. [Related pubchem assays: 1829 (Project Summary), 1814 (Primary HTS)]. It counts as functional.
The nature of experiment [4]: Luminescence Cell-Based Dose Response HTS to Identify Activators of Luciferase Translation or Activity in H4 […] Cells. [Related pubchem assays: 1829 (Project Summary), 1814 (Primary HTS)]. It counts as functional.
The subject of the next experiment is H4. As to the kind of experiment: Luminescence Cell-Based Dose Response HTS to Identify Activators of 5'UTR Stem-Loop Driven Prion Protein mRNA Translation in H4 Neuroglioblastoma Cells. [Related pubchem assays: 1829 (Project Summary), 1814 (Primary HTS)]. It counts as functional. The note with it: Homo sapiens.
The nature of experiment [5]: Luminescence Cell-Based Dose Response to Identify Activators of Luciferase Translation or Activity in H4-C Neuroglioblastoma Cells. [Related pubchem assays: 1829 (Project Summary), 1814 (Primary HTS)]. The format is functional.
Experiment [6] is described as follows: Trypanosoma cruzi growth suppression in host cells – NIH3T3 host cells, beta-gal luminescence, confirmation (AID 2044).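 Note: intracellular parasites grown in NIH/3T3 mouse fibroblasts as host cells; luminescent beta-galactosidase reporter signal from transgenic T. cruzi replicating inside host cells; inhibitors lower the luminescence signal.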 The format is functional, cell-based.
The nature of experiment [7]: NIH3T3 cell viability loss – ATP luminescence, mouse fibroblasts, counter-screen, dose response (AID 2010).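 Note: cells exposed to compound for about 90 hours before reading.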 It counts as functional, cell-based.
The nature of experiment [8]: Luminescence Cell-Based Dose Confirmation to Identify Activators of 5'UTR Stem-Loop Driven Alpha-Synuclein mRNA Translation in H4 Neuroglioblastoma Cells. [Related pubchem assays: 1829 (Project Summary), 1814 (Primary HTS)]. It counts as functional.
A short description of experiment [9]: viability of uninfected HEp-2 cells – cell-based, HTS, cytotoxicity control for RSV inhibitor project, dose response (AID 2410). It counts as functional. The note with it: human respiratory syncytial virus.
The nature of experiment [10]: HIV-1 Vif–A3G interaction blockers – biochemical, TR-FRET, GST-Vif 1-94, biotin-A3G peptide, dose response retest, primary screen (AID 1117319).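 Note: TR-FRET signal of purified GST-Vif binding a biotinylated A3G peptide; inhibitors lower the FRET signal by blocking Vif and A3G binding.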 The format is functional.
In a further experiment the target is T3, Galanin receptor type 3 (Homo sapiens, UniProt O60755).
T3 sequence (O60755 whole entry): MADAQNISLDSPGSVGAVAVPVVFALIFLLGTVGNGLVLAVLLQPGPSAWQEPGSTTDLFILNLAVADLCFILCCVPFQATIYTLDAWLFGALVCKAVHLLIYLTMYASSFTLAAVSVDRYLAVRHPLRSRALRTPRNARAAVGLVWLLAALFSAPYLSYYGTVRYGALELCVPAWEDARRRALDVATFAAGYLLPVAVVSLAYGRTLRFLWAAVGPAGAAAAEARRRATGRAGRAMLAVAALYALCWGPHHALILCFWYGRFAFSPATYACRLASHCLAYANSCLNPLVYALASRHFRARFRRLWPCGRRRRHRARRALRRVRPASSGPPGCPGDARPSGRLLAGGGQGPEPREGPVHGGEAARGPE
As to the kind of experiment: Fluorescence-based cell-based primary high throughput dose response assay to identify antagonists of the Galanin Receptor 3 (GalR3). It counts as functional.

Another experiment can be described thus: cells. The format is functional, cell-based. The note with it: HEK-CNG.
In a further experiment the target is Paired box protein Pax-8 (Homo sapiens, UniProt Q06710). As to the kind of experiment: PAX8 transcriptional activity inhibition in RMG-I – RMG-I cells, luciferase, cherry-pick, dose response (AID 687027).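 Note: luciferase reporter driven by Pax8 target thyroperoxidase promoter measured by SteadyGlo luminescence.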 The format is functional, cell-based.
The nature of experiment [11]: inhibitors acting on PAX2 in cells – cell-based, plate reader, dry powder samples, selectivity assay for PAX8 inhibitor project, dose response (AID 743048).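 Note: HEK293 cells carrying a WT1 promoter luciferase reporter driven by expressed Pax2; potency is for inhibition of Pax2 driven reporter signal.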 It counts as functional.
Experiment [12] in a line: OVCAR-3 cell viability loss – plate reader, dry powder samples, PAX8 inhibitor project, dose response (AID 743044). It counts as functional, cell-based.
Experiment [13] is described as follows: PAX5 cellular inhibition readout – cell-based, plate reader, dry powder samples, selectivity assay for PAX8 inhibitor project, dose response (AID 743047).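 Note: HEK293 cells carrying a Pax5 driven CD19 promoter luciferase reporter; potency of inhibitors that lower reporter luminescence.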 It counts as functional.
Experiment [14] can be described thus: COV434 cell viability loss – plate reader, dry powder, SA7, cytotoxicity control for PAX8 inhibitor project, dose response (AID 743145). It counts as functional, cell-based.
Experiment [15] in a line: OV-90 cell viability loss – plate reader, dry powder, SA8, PAX8 inhibitor project, dose response (AID 743149). It counts as functional, cell-based.
Experiment [16] can be described thus: PAX8-dependent cell viability loss – plate reader, dry powder, dose response (AID 743049). The format is functional, cell-based.
Experiment [17] deals with T4, RNA-binding protein pos-1 (Caenorhabditis elegans, UniProt G5EF15).
T4 sequence (G5EF15 whole entry): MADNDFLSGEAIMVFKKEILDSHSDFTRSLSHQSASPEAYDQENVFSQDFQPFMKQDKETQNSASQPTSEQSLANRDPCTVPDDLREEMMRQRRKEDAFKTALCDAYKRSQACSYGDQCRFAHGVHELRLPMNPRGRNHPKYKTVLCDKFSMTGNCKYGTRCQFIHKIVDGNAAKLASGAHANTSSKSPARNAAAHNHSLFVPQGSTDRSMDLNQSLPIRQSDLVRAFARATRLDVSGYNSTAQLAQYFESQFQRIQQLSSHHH
As to the kind of experiment: disruptors of C. elegans POS-1 RNA interaction – biochemical, fluorescence polarization, dose response (AID 1964).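 Note: purified POS-1 fused to maltose binding protein made in E. coli; potency of compounds blocking POS-1 binding to fluorescent RNA.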

The target of experiment [18] is T5, Zinc finger protein mex-5 (Caenorhabditis elegans, UniProt Q9XUB2).
T5 sequence (Q9XUB2 whole entry): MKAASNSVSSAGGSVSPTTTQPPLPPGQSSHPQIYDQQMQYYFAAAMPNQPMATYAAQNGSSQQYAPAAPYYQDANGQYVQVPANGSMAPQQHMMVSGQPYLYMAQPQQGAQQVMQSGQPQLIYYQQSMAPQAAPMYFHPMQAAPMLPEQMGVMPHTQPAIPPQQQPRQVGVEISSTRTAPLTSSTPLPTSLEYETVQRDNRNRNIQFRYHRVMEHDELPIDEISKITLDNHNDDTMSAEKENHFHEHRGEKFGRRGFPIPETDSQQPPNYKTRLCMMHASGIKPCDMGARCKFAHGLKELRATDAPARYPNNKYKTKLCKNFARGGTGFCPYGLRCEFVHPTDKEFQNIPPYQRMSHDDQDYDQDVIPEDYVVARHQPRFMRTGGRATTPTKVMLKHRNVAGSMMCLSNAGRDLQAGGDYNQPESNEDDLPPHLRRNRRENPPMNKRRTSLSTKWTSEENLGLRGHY
As to the kind of experiment: potency of MEX-5 RNA-binding blockers – biochemical, C. elegans, fluorescence polarization, dose response (AID 1960).

Experiment [19] deals with T1, Corticotropin-releasing factor receptor 2/Corticotropin-releasing factor-binding protein. Description: Dose Response confirmation of uHTS hits for small molecule antagonists of the CRF-binding protein and CRF-R2 receptor complex. It counts as functional. The note with it: read-out: IC50_Mean.
A short description of experiment [20]: Luminescence-based cell-based high throughput dose response assay to identify activators of the DAF-12 from the parasite S. stercoralis (ssDAF-12). It counts as functional.
Experiment [21] deals with T6, Oxysterols receptor LXR-beta (Homo sapiens, UniProt P55055).
T6 sequence (P55055 whole entry): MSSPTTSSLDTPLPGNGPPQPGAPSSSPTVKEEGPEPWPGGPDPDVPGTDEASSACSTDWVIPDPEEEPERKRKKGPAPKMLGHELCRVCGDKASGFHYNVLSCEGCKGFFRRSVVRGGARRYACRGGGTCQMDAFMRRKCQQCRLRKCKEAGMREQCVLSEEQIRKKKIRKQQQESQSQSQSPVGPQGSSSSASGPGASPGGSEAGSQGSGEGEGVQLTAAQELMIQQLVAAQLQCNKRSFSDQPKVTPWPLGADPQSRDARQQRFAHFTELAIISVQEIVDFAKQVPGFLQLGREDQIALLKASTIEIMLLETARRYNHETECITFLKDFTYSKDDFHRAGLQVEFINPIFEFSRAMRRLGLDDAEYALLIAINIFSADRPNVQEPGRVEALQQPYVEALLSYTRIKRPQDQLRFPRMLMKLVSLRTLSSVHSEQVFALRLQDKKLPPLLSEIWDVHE
Description: LXR agonists, Gal4 luciferase reporter, dose response, counter-screen for ssDAF-12 agonist project, cell-based, luminescence, HEK293, S. stercoralis campaign (AID 720737). It counts as functional. The settings on record: read-out: IC50 (the source's name).

The nature of experiment [22]: reduced cellular PGC1a acetyl-lysine signal – cell-based, cherry-picked samples, dose response (AID 720514).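 Note: potency may reflect raised or lowered acetylation signal.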 It counts as functional.

Chain of Kallikrein-7 (P49862 whole entry): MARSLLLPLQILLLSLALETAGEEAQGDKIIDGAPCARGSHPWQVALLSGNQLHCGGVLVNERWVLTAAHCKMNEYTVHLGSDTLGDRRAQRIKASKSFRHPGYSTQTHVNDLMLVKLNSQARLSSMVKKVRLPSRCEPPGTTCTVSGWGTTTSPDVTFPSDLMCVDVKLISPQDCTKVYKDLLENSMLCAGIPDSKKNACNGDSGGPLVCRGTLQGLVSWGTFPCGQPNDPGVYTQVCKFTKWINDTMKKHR
Chain of Paired box protein Pax-8 (Q06710 whole entry): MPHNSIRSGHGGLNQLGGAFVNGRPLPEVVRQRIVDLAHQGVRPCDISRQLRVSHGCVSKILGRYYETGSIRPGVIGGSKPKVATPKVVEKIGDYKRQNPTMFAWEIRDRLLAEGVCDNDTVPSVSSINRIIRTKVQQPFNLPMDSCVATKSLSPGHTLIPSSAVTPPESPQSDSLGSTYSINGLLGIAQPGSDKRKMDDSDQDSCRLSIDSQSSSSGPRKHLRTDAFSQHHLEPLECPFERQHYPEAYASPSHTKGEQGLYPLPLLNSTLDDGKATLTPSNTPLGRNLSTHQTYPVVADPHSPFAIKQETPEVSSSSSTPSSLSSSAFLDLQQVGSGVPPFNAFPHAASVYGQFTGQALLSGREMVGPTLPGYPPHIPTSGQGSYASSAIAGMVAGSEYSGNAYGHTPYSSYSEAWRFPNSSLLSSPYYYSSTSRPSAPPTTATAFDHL

`CCN1CCSc2ccc(C(=O)NCc3ccccc3F)cc21`: the EC50 is > 53 µM (inactive) in [1] and > 69.5 µM (inactive) at Kallikrein-7.
On to `O=C(Nc1ccccc1C(=O)NC(Cc1c[nH]c2ccccc12)C(=O)O)c1ccco1` (stereo not drawn), for which, on Protein Tat, the IC50 is > 100 µM (active).
`CCC(=O)Nc1ccc(C(=O)OCc2ccccc2Cl)cc1`: the EC50 was 8.13 µM (active) in experiment [2]; < 100 nM (active) in [3]; 37.7 µM (active) in experiment [4]; 11.7 µM (active) with H4; 614 nM (active) in experiment [5]; 815 nM (active) in experiment [6]. Further, the results for the EC50 in [7] and in [8] were > 60 µM (not active) and 976 nM (active), respectively.
As for `CCN(CC)c1ccc2c(C)c(CO)c(=O)oc2c1`, the CC50 in experiment [9] is > 50 µM (active). At Kallikrein-7, the EC50 is 6.34 µM (active).
Turning to `Cc1ccn2cc(CNS(=O)(=O)c3ccc(Cl)s3)nc2c1`, the IC50 (at Protein Tat; in [10]) was > 100 µM (active) throughout.
Turning to `CCCCC[C@H](O)/C=C/[C@H]1CCC(=O)[C@@H]1CCCCCCC(=O)N1CCCCC1CO` (stereo partly drawn), the IC50 at Galanin receptor type 3 is 3.54 µM (active). Moreover, in the experiment “cells”, the EC50 was > 29.9 µM (inactive).
Turning to `O=C(/C=C/c1ccco1)NC1=NCCS1`, the EC50 in experiment [2] is 0.519 µM (active); in experiment [3], < 100 nM (active); in experiment [4], 0.484 µM (active); in the experiment with H4, < 0.1 µM (active); in experiment [5], 323 nM (active); in [8], 428 nM (active).
`Cc1ccc(S(=O)(=O)Nc2ccc3c(c2)nc(CCN2CCCC2)n3C)cc1`: the AC50 on Paired box protein Pax-8 was 5.89 µM (active); in experiment [11], > 100 µM (inactive); in experiment [12], 34.1 µM (active); in experiment [13], > 100 µM (inactive); in [14], 26.4 µM (active); in experiment [15], 45.2 µM (active). For the same compound, in experiment [16], the AC50 is 50.6 µM (active).
Regarding `CCCn1nc(C(=O)Nc2ccc3nc(C)sc3c2)c2ccccc2c1=O`, the EC50 in [17] is > 300 µM (not active); in experiment [18], > 300 µM (not active); in experiment [1], > 53 µM (inactive); in experiment [21], > 67.5 µM (inactive). In addition, the IC50 in [19] was > 47.1 µM (inactive); in experiment [20] it was > 67.5 µM (inactive).
As to `CCOC(=O)c1cnc2c(C(=O)OC)cccc2c1NCc1ccco1`, the EC50 at Kallikrein-7 is > 69.5 µM (inactive).
Regarding `CC(C)CC#Cc1ccc([C@H]2[C@H](CO)N3C(=O)CN(C(=O)Nc4cc(F)ccc4F)C[C@@H]23)cc1`, in [22], the AC50 was 27.6 µM (active).
